Active and inactive are the calls of the source.
Columns and labels:
[1] = target: Disintegrin and metalloproteinase domain-containing protein 17 (Homo sapiens, UniProt P78536); assay: ADAM17 protease inhibitors, dose response, counter-screen for ADAM10 exosite inhibitor project, biochemical, quenched FRET substrate (AID 743253)
[2] = ADAM10 inhibitors, peptide cleavage, dose response, biochemical, QFRET (AID 743254);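 note: ADAM10 enzyme with the DM2 quenched FRET peptide as substrate; EDANS fluorescence gain as the protease cuts the substrate; inhibitor potency against ADAM10 proteolytic activity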
[3] = target: T1, Endoribonuclease toxin MazF (Escherichia coli K-12, UniProt P0AE70); assay: fluorescent RNA oligo signal without MazF, dose response, counter-screen for MazEF activator project, biochemical, fluorescence, single-stranded RNase substrate (AID 588502); assay type: functional
T1 sequence (P0AE70 whole entry): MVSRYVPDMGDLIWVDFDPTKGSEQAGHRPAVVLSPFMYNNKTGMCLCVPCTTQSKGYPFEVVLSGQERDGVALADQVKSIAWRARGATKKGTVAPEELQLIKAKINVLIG

[4] = target: T1, Endoribonuclease toxin MazF; assay: MazF toxin RNase activators, dose response, biochemical, fluorescence, single-stranded RNA substrate, uHTS hits (AID 588481); assay type: functional
[5] = target: T2, Oxysterols receptor LXR-beta (Homo sapiens, UniProt P55055); assay type: functional, cell-based
T2 sequence (P55055 whole entry): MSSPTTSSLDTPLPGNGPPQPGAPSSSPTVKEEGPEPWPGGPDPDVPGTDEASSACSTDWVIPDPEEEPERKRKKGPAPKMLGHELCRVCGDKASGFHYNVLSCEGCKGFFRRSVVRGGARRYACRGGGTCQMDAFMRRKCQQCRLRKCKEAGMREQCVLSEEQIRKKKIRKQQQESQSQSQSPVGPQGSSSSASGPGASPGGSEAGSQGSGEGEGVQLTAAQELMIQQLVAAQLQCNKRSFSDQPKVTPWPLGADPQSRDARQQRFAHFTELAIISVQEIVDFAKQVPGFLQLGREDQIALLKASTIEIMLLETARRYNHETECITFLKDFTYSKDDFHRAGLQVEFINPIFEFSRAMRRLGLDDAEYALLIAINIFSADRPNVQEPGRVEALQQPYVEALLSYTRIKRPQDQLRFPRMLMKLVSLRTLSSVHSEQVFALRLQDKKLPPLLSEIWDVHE

[6] = target: T3, Caspase-3 (Homo sapiens, UniProt P42574); assay type: functional;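 note: Dose-response selectivity test against caspase-3 for candidate inhibitors of sentrin-specific proteases (SENPs)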
T3 sequence (P42574 whole entry): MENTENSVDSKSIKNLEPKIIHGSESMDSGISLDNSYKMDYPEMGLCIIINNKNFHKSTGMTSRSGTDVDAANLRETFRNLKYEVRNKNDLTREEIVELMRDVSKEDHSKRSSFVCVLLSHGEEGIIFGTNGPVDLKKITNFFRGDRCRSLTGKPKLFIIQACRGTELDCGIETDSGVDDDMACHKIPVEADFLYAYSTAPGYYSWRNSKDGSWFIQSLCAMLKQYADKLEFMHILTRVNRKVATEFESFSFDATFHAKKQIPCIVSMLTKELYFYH

[7] = target: T4, Sentrin-specific protease 6 (Homo sapiens, UniProt Q9GZR1); assay type: functional;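 note: Luminescence-based dose-response confirmatory assay of SENP6 inhibition, following up an ultra-high-throughput screen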
T4 sequence (Q9GZR1 whole entry): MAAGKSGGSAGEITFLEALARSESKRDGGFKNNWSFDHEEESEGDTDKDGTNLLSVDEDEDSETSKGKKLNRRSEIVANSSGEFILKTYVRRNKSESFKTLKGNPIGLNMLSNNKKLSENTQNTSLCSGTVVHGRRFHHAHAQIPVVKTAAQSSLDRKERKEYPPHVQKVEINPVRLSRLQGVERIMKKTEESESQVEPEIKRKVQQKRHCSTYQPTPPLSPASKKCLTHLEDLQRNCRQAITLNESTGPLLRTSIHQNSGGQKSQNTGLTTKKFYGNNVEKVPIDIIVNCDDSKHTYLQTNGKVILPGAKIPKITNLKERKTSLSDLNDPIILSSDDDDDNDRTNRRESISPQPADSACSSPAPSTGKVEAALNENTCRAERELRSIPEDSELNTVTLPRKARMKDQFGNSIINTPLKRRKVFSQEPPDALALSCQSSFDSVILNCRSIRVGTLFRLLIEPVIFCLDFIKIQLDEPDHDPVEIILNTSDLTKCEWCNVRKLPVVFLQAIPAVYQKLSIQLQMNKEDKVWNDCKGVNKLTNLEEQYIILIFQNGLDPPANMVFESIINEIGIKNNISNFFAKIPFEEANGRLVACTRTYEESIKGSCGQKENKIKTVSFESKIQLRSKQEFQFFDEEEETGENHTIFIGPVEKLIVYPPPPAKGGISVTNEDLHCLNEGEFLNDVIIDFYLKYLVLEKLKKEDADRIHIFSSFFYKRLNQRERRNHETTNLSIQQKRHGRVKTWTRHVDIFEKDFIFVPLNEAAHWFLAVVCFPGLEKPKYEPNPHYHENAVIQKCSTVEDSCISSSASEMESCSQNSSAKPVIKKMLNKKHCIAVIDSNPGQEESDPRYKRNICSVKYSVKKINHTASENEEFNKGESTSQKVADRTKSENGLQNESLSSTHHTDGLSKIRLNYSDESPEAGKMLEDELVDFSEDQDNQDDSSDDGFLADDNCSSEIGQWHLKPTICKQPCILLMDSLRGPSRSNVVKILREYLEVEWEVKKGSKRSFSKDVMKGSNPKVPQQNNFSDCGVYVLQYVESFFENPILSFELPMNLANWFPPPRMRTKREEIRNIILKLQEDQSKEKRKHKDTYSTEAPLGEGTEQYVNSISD

[8] = target: T2, Oxysterols receptor LXR-beta; assay: LXR agonists, Gal4 luciferase reporter, dose response, counter-screen for ssDAF-12 agonist project, cell-based, luminescence, HEK293, S. stercoralis campaign (AID 720737); assay type: functional; conditions: read-out: IC50 (the source's name)
[9] = Luminescence-based cell-based high throughput dose response assay to identify activators of the DAF-12 from the parasite S. stercoralis (ssDAF-12).; assay type: functional
[10] = cells
[11] = target: T2, Oxysterols receptor LXR-beta; assay type: functional, cell-based; remark: listed apart in the source
[12] = target: T5, Sentrin-specific protease 7 (Homo sapiens, UniProt Q9BQF6); assay type: functional;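 note: Luminescence-based dose-response confirmation of ultra-high-throughput screening hits, measuring inhibition of SENP7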
T5 sequence (Q9BQF6 whole entry): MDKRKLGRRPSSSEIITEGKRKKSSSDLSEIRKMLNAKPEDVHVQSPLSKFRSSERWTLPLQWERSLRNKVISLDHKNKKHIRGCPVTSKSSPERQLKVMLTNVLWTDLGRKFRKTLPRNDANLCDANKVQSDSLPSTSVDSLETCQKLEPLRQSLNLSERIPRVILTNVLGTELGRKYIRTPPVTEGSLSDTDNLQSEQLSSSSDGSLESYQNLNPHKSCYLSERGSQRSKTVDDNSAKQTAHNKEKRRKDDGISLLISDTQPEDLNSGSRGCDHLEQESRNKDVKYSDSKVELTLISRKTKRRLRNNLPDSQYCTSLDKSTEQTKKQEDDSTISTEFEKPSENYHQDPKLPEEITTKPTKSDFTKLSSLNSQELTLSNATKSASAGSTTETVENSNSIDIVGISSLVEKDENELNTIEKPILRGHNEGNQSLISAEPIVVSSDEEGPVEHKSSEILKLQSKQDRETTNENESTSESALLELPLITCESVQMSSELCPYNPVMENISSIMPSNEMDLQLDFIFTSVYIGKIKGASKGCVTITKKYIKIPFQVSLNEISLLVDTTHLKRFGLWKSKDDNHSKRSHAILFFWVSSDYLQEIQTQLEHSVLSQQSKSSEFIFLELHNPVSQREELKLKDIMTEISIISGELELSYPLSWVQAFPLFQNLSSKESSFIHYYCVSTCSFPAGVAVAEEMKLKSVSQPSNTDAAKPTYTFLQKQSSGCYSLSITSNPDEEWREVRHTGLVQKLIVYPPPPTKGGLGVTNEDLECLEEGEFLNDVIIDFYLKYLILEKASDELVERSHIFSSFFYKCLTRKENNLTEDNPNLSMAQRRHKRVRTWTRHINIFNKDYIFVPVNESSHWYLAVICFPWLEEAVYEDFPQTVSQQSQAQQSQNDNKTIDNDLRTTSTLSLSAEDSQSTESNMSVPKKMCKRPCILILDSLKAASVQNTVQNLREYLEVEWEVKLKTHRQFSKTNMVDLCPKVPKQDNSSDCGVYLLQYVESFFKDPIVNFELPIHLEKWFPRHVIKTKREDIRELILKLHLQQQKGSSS

[13] = target: T6, Sentrin-specific protease 8 (Homo sapiens, UniProt Q96LD8); assay type: functional;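 note: luminescence read-out of SENP8 inhibition, dose-response confirmation following an ultra-high-throughput screen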
T6 sequence (Q96LD8 whole entry): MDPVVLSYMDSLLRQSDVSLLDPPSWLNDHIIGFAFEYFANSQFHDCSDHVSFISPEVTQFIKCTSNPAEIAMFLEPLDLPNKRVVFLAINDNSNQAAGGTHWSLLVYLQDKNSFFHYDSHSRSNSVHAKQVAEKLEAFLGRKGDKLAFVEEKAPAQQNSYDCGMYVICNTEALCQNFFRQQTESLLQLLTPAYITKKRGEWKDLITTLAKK

[14] = system: HeLa; assay: HeLa cell cytotoxicity, dose response, cytotoxicity control, ATP luminescence, cherry-pick samples (AID 687004); assay type: functional, cell-based; conditions: Homo sapiens
[15] = HEK293 Cytotoxicity Assay Measured in Cell-Based System Using Plate Reader - 7071-01_Inhibitor_Dose_CherryPick_Activity_Set2.; assay type: functional
[16] = system: HEK293; assay: HEK293T cell cytotoxicity, dose response, cytotoxicity control, ATP luminescence, cherry-pick samples (AID 687005); assay type: functional, cell-based; conditions: Homo sapiens;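 note: cells exposed to compound for 48 hours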
[17] = cells; remark: listed apart in the source
[18] = target: T7, RNA-binding protein pos-1 (Caenorhabditis elegans, UniProt G5EF15); assay: inhibitors of POS-1/mex-3 RNA binding, dose response, biochemical, fluorescence polarization (AID 1964);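 note: purified POS-1 fused to maltose binding protein made in E. coli; potency of compounds blocking POS-1 binding to fluorescent RNA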
T7 sequence (G5EF15 whole entry): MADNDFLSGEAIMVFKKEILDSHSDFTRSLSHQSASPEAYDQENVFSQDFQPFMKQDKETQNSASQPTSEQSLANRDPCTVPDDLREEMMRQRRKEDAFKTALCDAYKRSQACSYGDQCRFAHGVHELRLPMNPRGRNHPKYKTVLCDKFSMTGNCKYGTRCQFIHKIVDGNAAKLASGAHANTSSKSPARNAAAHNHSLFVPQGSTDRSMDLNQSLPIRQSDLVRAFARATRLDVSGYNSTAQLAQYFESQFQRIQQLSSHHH

[19] = target: T8, Zinc finger protein mex-5 (Caenorhabditis elegans, UniProt Q9XUB2); assay: MEX-5/TCR-2 RNA interaction inhibitors, dose response, biochemical, C. elegans, fluorescence polarization (AID 1960)
T8 sequence (Q9XUB2 whole entry): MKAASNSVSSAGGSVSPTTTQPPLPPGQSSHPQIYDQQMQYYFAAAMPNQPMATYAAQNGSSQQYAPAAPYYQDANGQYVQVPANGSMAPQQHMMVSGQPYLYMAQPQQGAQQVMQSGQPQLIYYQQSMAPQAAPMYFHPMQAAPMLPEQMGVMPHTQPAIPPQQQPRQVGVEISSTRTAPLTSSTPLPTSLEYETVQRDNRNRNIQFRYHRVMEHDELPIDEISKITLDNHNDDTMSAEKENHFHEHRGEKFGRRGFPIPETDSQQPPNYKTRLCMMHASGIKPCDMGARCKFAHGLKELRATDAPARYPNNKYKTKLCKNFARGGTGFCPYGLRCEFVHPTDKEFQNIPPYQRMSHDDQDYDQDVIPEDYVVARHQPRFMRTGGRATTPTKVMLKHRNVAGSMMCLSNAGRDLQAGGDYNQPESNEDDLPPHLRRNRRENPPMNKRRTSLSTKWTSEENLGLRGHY

Disintegrin and metalloproteinase domain-containing protein 17, sequence (P78536 whole entry, the tested form may be a part): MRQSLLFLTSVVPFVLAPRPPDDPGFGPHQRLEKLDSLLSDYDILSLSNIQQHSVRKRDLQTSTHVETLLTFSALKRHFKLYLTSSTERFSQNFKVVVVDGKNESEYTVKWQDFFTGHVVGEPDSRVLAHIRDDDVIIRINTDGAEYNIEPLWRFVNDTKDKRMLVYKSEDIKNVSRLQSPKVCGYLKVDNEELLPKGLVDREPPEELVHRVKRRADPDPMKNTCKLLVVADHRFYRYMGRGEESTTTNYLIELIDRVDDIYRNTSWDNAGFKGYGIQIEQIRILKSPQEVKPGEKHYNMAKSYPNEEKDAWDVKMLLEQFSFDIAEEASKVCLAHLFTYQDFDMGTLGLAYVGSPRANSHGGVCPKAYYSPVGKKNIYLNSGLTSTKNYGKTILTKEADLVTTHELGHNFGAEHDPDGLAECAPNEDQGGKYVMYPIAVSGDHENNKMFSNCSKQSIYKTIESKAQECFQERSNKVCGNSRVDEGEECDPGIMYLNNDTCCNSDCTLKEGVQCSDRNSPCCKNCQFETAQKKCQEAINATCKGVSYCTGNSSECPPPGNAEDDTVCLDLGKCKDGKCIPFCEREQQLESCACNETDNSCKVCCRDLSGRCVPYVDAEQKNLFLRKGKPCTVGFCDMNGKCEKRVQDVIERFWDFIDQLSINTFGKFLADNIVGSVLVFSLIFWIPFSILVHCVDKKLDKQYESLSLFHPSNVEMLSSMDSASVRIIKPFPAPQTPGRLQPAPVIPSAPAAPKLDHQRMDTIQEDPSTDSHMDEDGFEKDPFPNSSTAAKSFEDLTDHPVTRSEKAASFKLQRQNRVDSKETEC

For `COc1ccccc1NS(=O)(=O)c1cc(NC(=O)c2cc(F)c(F)c(F)c2F)ccc1N1CCOCC1`, the IC50 [1] was > 69.5 µM (inactive) and the IC50 [2] was > 69.5 µM (inactive).
In the case of `OC(c1ccccc1)(c1nc(-c2ccc3c(c2)OCO3)cs1)C(F)(F)F` (stereo not drawn), the IC50 [1] is reported as > 69.5 µM (inactive) and the IC50 [2] is reported as > 7.73 µM (active).
For `C(=N\NC1=Nc2cccc3cccc1c23)/c1ccccc1`, the EC50 [3] was > 99 µM (inactive), the EC50 [4] was > 99 µM (inactive) and the EC50 [5] was > 67.5 µM (inactive). For the same molecule, the IC50 [6] was 30.1 µM (active), the IC50 [7] was > 100 µM (inactive) and the EC50 [8] was > 67.5 µM (inactive). For the same molecule, the IC50 [9] was > 67.5 µM (inactive), the EC50 [10] was > 67.5 µM (inactive) and the EC50 [11] was > 67.5 µM (inactive). The IC50 [12] was 5.42 µM (active) and the IC50 [13] was > 100 µM (inactive).
In the case of `C[C@@H]1CN([C@H](C)CO)C(=O)c2cccc(NC(=O)Nc3ccccc3)c2O[C@@H]1CN(C)Cc1ccc(Cl)c(Cl)c1`, the AC50 [14] is reported as 45.7 µM (active), the AC50 [15] is reported as 9.06 µM (active) and the AC50 [16] is reported as 9.06 µM (active).
For `CCN(CC)c1ccc2cc(C#N)c(=O)oc2c1`, the AC50 [17] was 0.575 µM (active), the EC50 [18] was 76.3 µM (active) and the EC50 [19] was 63 µM (inconclusive).
For `Cc1ccc(C(=O)NC(=S)Nc2ccc(N3CCOCC3)cc2)cc1`, the AC50 [15] was 20.1 µM (active) and the AC50 [16] was 20.1 µM (active).

Source: ChEMBL document CHEMBL1201862, “PubChem BioAssay data set” (2004)
